Experimental data: PubChem BioAssay (NCI)
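Values below derive from 48-hour exposures of cells grown in 96-well plates, with endpoints linearly interpolated between the two concentrations bracketing the appropriate inhibition level. TGI: concentration producing complete growth inhibition.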

Assays:
Test in all cases: inhibition of tumour cell growth, NCI panel, 48 h
[1] = system: HCT-116 colon
[2] = system: SW-620 colon
[3] = system: OVCAR-8 ovarian
[4] = system: NCI-H460 lung
[5] = system: SN12C renal
[6] = system: NCI-H226 lung
[7] = system: A498 renal
[8] = system: SK-OV-3 ovarian
[9] = system: ACHN renal
[10] = system: NCI-H522 lung
[11] = system: M19-MEL melanoma
[12] = system: 786-0 renal
[13] = system: MOLT-4 leukemia
[14] = system: DMS 273 small cell lung
[15] = system: HT29 colon
[16] = system: SK-MEL-2 melanoma
[17] = system: UO-31 renal
[18] = system: LOX IMVI melanoma
[19] = system: SK-MEL-5 melanoma
[20] = system: NCI-H23 lung
[21] = system: CAKI-1 renal
[22] = system: KM20L2 colon
[23] = system: SF-295 CNS
[24] = system: SF-268 CNS
[25] = system: SR leukemia
[26] = system: SNB-19 CNS
[27] = system: UACC-257 melanoma
[28] = system: EKVX NSCLC
[29] = system: CCRF-CEM leukemia
[30] = system: OVCAR-5 ovarian
[31] = system: UACC-62 melanoma
[32] = system: KM12 colon
[33] = system: COLO 205 colon
[34] = system: SNB-78 CNS
[35] = system: HL-60(TB) leukemia
[36] = system: A549 NSCLC
[37] = system: SNB-75 CNS
[38] = system: SF-539 CNS
[39] = system: HOP-18 NSCLC
[40] = system: HCC-2998 colon
[41] = system: TK-10 renal
[42] = system: OVCAR-4 ovarian
[43] = system: IGROV1 ovarian
[44] = system: MALME-3M melanoma
[45] = system: HOP-62 NSCLC
[46] = system: SK-MEL-28 melanoma
[47] = system: HCT-15 colon
[48] = system: K-562 leukemia
[49] = system: OVCAR-3 ovarian
[50] = system: DLD-1 colon
[51] = system: RXF 393 renal
[52] = system: LXFL 529 NSCLC
[53] = system: M14 melanoma
[54] = system: XF 498 CNS
[55] = system: U251 CNS
[56] = system: RPMI-8226 leukemia
[57] = system: HOP-92 NSCLC
[58] = system: DMS 114 small cell lung

Measured: TGI

C[O+]=c1cccc2ssnc1-2
64.8 µM: [25]
91.6 µM: [48]
96.1 µM: [13]
58.7 µM: [19]
43.1 µM: [54]
69.3 µM: [11]
74.1 µM: [3]
70.6 µM: [2]
58.8 µM: [31]
88.5 µM: [27]
69.6 µM: [35]
98 µM: [17]
> 10 µM: [10] | [29] | [55]
not listed: [56] | [57] | [58]
> 100 µM: all other assays above

O=C(OCc1ccccc1)N1N=NC2C1C1CC(OCc3ccccc3)(OCc3ccccc3)C2O1 (stereo not drawn)
not listed: [1] | [3] | [10] | [25] | [26] | [28] | [41] | [58]
> 100 µM: all other assays above

CSc1nc2c(nc(N)n2C2OC(CO)C(O)C(O)C2O)c(=O)n1C (stereo not drawn)
not listed: [14] | [16] | [30] | [47] | [56]
> 100 µM: all other assays above
